{"source": "patent US20110237538A1", "about": "“TREATMENT OF LYSOSOMAL STORAGE DISORDERS AND OTHER PROTEOSTATIC DISEASES” (SUMMIT CORPORATION PLC, priority 2008, published 2011)", "data": [{"biological_target": "T1, wild type (wt) lysosomal alpha-glucosidase (Homo sapiens, UniProt P10253)", "T1 construct": "The lysates were used as a source for wild type (wt) lysosomal alpha-glucosidase; endogenous in cells; host or cells: HL60 (ECACC No. 98070106) lysate", "experiment": "alpha-glucosidase activity assay in HL60 lysate (4MU-α-D-glc);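 further: fluorometric rate of 4MU product release read at 360 nm excitation and 450 nm emission, reactions run at 37 °C in citric phosphate buffer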", "format": "biochemical", "conditions": "at a concentration of 100 uM, 0.5 mM 4MU-α-D-glc, pH 4.5", "units": {"inhibition at 100 µM": "%"}, "values": [{"smiles": "OC[C@@H](O)[C@@H]1NC[C@](O)(CO)[C@H]1O", "note": "[Compound 179, (2S,3S,4S)-2-((S)-1,2-dihydroxyethyl)-4-(hydroxymethyl)pyrrolidine-3,4-diol]", "inhibition at 100 µM": "> 50"}, {"smiles": "OCC1OC(O[C@H]2[C@H](O)[C@@H](CO)N[C@@H]2CO)C(O)C(O)C1O", "note": "(stereo partly drawn) [Compound 79, 2-((2R,3R,4R,5R)-4-hydroxy-2,5-bis(hydroxymethyl)pyrrolidin-3-yloxy)-6-(hydroxymethyl)tetrahydro-2H-pyran-3,4,5-triol]", "inhibition at 100 µM": "> 50"}, {"smiles": "C[C@@]1(CO)NC[C@H](O)[C@H]1O", "note": "[Compound 501, (2S,3S,4S)-2-(hydroxymethyl)-2-methylpyrrolidine-3,4-diol]", "inhibition at 100 µM": "> 50"}, {"smiles": "O=C1N[C@H](CO)[C@H](O)[C@@H](O)[C@@H]1O", "note": "[Compound 446, (3S,4R,5S,6R)-3,4,5-trihydroxy-6-(hydroxymethyl)piperidin-2-one]", "inhibition at 100 µM": "> 50"}, {"smiles": "OC[C@@H]1[C@@H](O)[C@H](O)[C@H]2[C@H](O)[C@@H](O)CN21", "note": "[Compound 137, (1R,2R,3R,6S,7S,7aR)-3-(hydroxymethyl)hexahydro-1H-pyrrolizine-1,2,6,7-tetraol]", "inhibition at 100 µM": "> 50"}, {"smiles": "OCC1OC(OC[C@H]2NC[C@H](O)[C@@H](O)[C@@H]2O)C(O)C(O)C1O", "note": "(stereo partly drawn) [Compound 78, (2R,3R,4R,5S)-2-((3,4,5-trihydroxy-6-(hydroxymethyl)tetrahydro-2H-pyran-2-yloxy)methyl)piperidine-3,4,5-triol]", "inhibition at 100 µM": "> 50"}, {"smiles": "C[C@@H]1N[C@@H](CO)[C@H](O)[C@H]1O", "note": "[Compound 300, (2S,3S,4S,5S)-2-(hydroxymethyl)-5-methylpyrrolidine-3,4-diol]", "inhibition at 100 µM": "> 50"}, {"smiles": "COCCOCCN1C[C@H](O)[C@@H](O)[C@H](O)[C@H]1CO", "note": "[Compound 725, (2R,3R,4R,5S)-2-(hydroxymethyl)-1-(2-(2-methoxyethoxy)ethyl)piperidine-3,4,5-triol]", "inhibition at 100 µM": "> 50"}, {"smiles": "O=C(O)CN1C[C@H](O)[C@@H](O)[C@H](O)[C@H]1CO", "note": "[Compound 214, 2-((2R,3R,4R,5S)-3,4,5-trihydroxy-2-(hydroxymethyl)piperidin-1-yl)acetic acid]", "inhibition at 100 µM": "> 50"}, {"smiles": "C[N+]1(C)C[C@@H](O)[C@H](O)[C@H]1C(=O)[O-]", "note": "[Compound 80, (2S,3R,4R)-3,4-dihydroxy-1,1-dimethylpyrrolidinium-2-carboxylate]", "inhibition at 100 µM": "> 50"}, {"smiles": "OCCCCN1C[C@H](O)[C@@H](O)[C@H](O)[C@H]1CO", "note": "[Compound 276, (2R,3R,4R,5S)-1-(4-hydroxybutyl)-2-(hydroxymethyl)piperidine-3,4,5-triol]", "inhibition at 100 µM": "> 50"}, {"smiles": "OC[C@@H]1NC[C@](O)(CO)[C@H]1O", "note": "[Compound 202, (2S,3S,4S)-2,4-bis(hydroxymethyl)pyrrolidine-3,4-diol]", "inhibition at 100 µM": "> 50"}, {"smiles": "CC[C@@H]1N[C@@H](CO)[C@H](O)[C@@H](O)[C@@H]1O", "note": "[Compound 23, (2S,3R,4S,5S,6S)-2-ethyl-6-(hydroxymethyl)piperidine-3,4,5-triol]", "inhibition at 100 µM": "> 50"}, {"smiles": "C[C@H]1N[C@H](CO)[C@@H](O)[C@H](O)[C@H]1O", "note": "[Compound 51, (2R,3R,4R,5S,6R)-2-(hydroxymethyl)-6-methylpiperidine-3,4,5-triol]", "inhibition at 100 µM": "> 50"}, {"smiles": "C[C@@H]1CC[C@@H]2[C@H](O)[C@H](O)[C@@H](CO)N12", "note": "[Compound 150, (1S,2R,3R,5R,7aR)-3-(hydroxymethyl)-5-methylhexahydro-1H-pyrrolizine-1,2-diol]", "inhibition at 100 µM": "> 50"}, {"smiles": "OC[C@H]1[C@H](O)[C@@H](O)CN1Cc1ccccc1", "note": "[Compound 500, (2S,3S,4S)-1-benzyl-2-(hydroxymethyl)pyrrolidine-3,4-diol]", "inhibition at 100 µM": "> 50"}]}, {"biological_target": "T2, wild type (wt) beta-glucocerebrosidase (Homo sapiens, UniProt P04062)", "T2 construct": "The lysates were used as a source for wild type (wt) beta-glucocerebrosidase; endogenous in cells; host or cells: HL60 (ECACC No. 98070106) lysate", "T2 sequence (P04062 40-536)": "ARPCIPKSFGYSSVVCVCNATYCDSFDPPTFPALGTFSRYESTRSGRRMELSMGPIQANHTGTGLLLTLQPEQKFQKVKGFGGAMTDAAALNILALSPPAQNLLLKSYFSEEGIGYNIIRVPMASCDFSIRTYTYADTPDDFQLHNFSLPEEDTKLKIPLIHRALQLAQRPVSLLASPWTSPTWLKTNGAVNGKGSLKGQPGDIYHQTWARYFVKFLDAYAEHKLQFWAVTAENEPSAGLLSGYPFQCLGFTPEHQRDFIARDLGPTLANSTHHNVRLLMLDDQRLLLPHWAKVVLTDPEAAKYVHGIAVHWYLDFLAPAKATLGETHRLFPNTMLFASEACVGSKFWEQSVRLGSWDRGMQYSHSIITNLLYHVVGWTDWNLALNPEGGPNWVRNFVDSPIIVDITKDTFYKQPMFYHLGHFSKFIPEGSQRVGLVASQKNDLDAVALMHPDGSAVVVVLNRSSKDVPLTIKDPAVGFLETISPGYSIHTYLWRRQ", "experiment": "beta-glucocerebrosidase activity assay in HL60 lysate (4MU-β-D-glc);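 further: fluorometric read-out of 4MU liberated from the substrate (ex 360 nm, em 450 nm) after 37 °C incubation, reaction stopped with sodium carbonate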", "format": "biochemical", "conditions": "at a concentration of 100 μM, 0.5 mM 4MU-β-D-glc", "units": {"inhibition at 100 µM": "%"}, "values": [{"smiles": "O=C(NC[C@@H]1[C@@H](O)[C@@H](O)CN1Cc1ccc(-c2ccccc2)cc1)c1ccccc1", "note": "[Compound 649, N-(((2R,3R,4S)-1-(biphenyl-4-ylmethyl)-3,4-dihydroxypyrrolidin-2-yl)methyl)benzamide]", "inhibition at 100 µM": "> 50"}, {"smiles": "CCCCCCCCCN1C[C@@H](O)[C@H](O)[C@H]1CO", "note": "[Compound 568, (2R,3R,4R)-2-(hydroxymethyl)-1-nonylpyrrolidine-3,4-diol]", "inhibition at 100 µM": "> 50"}, {"smiles": "O=C(O)CN1C[C@H](CO)[C@@H](O)[C@H](O)C1", "note": "[Compound 450, 2-((3R,4R,5R)-3,4-dihydroxy-5-(hydroxymethyl)piperidin-1-yl)acetic acid]", "inhibition at 100 µM": "> 50"}, {"smiles": "OC[C@@H]1CNC[C@H](O)[C@H]1O", "note": "[Compound 641, (3S,4S,5S)-5-(hydroxymethyl)piperidine-3,4-diol]", "inhibition at 100 µM": "> 50"}, {"smiles": "OCC1OC(CO)(O[C@H]2[C@H](O)[C@H](O)[C@H](CO)N[C@@H]2CO)C(O)C1O", "note": "(stereo partly drawn) [Compound 77, (2S,3R,4R,5R,6R)-5-(3,4-dihydroxy-2,5-bis(hydroxymethyl)tetrahydrofuran-2-yloxy)-2,6-bis(hydroxymethyl)piperidine-3,4-diol]", "inhibition at 100 µM": "> 50"}, {"smiles": "C[C@@H]1CCC[C@@H]2[C@@H](O)[C@@H](O)[C@@H](CO)N12", "note": "[Compound 60, (1R,2S,3R,5R,8aR)-3-(hydroxymethyl)-5-methyloctahydroindolizine-1,2-diol]", "inhibition at 100 µM": "> 50"}, {"smiles": "O[C@H]1[C@H](O)[C@H](O)CN(CCCCCOCC23CC4CC(CC(C4)C2)C3)C[C@H]1O", "note": "[Compound 766, (3R,4R,5R,6R)-1-(5-(adamantan-1-yl-methoxy)-pentyl)azepane-3,4,5,6-tetraol]", "inhibition at 100 µM": "> 50"}, {"smiles": "OC[C@H]1[C@@H](O)[C@H](O)CN1CC1CCCCC1", "note": "[Compound 320, (2S,3R,4R)-1-(cyclohexylmethyl)-2-(hydroxymethyl)pyrrolidine-3,4-diol]", "inhibition at 100 µM": "> 50"}, {"smiles": "NC[C@H]1[C@@H](O)[C@@H](O)CN1Cc1ccc(-c2ccccc2)cc1", "note": "[Compound 686, (2S,3R,4S)-2-(aminomethyl)-1-(biphenyl-4-ylmethyl)pyrrolidine-3,4-diol]", "inhibition at 100 µM": "> 50"}, {"smiles": "OCCCCCCCCCN1[C@H](CO)[C@@H](O)[C@H](O)[C@H]1CO", "note": "[Compound 557, (2R,3R,4R,5R)-2,5-bis(hydroxymethyl)-1-(9-hydroxynonyl)pyrrolidine-3,4-diol]", "inhibition at 100 µM": "> 50"}, {"smiles": "OC[C@@H]1[C@@H](O)[C@H](O)CN1CCCOc1ccccc1", "note": "[Compound 349, (2R,3R,4R)-2-(hydroxymethyl)-1-(3-phenoxypropyl)pyrrolidine-3,4-diol]", "inhibition at 100 µM": "> 50"}, {"smiles": "OC[C@@H]1[C@@H](O)[C@H](O)[C@@H]2[C@@H](O)CCN21", "note": "[Compound 17, (1R,2R,3R,7S,7aS)-3-(hydroxymethyl)hexahydro-1H-pyrrolizine-1,2,7-triol]", "inhibition at 100 µM": "> 50"}, {"smiles": "OCCN1C[C@H](CO)[C@@H](O)[C@H](O)C1", "note": "[Compound 420, (3R,4R,5R)-1-(2-hydroxyethyl)-5-(hydroxymethyl)piperidine-3,4-diol]", "inhibition at 100 µM": "> 50"}, {"smiles": "CCCCN1C[C@H](CO)[C@@H](O)[C@H](O)C1", "note": "[Compound 419, (3R,4R,5R)-1-butyl-5-(hydroxymethyl)piperidine-3,4-diol]", "inhibition at 100 µM": "> 50"}, {"smiles": "O=C(CCCCO)CCCCCCC[C@@H](O)[C@H]1N[C@H](CO)[C@@H](O)[C@@H]1O", "note": "[Compound 226, (R)-13-((2R,3R,4R,5R)-3,4-dihydroxy-5-(hydroxymethyl)pyrrolidin-2-yl)-1,13-dihydroxytridecan-5-one]", "inhibition at 100 µM": "> 50"}, {"smiles": "OC1C[C@@]2(O)N[C@@H]1C[C@H](O)[C@H]2O", "note": "(stereo partly drawn) [Compound 43, (1S,2R,3S,5R)-8-azabicyclo[3.2.1]octane-1,2,3,6-tetraol]", "inhibition at 100 µM": "> 50"}]}]}
